What was measured:
S. aureus DSM 20231 [1] = assay: fitness (endpoint OD595 vs no drug) (fraction); higher = more growth
Outline: (§1)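 Fitness compares growth at the stationary-phase transition with the robust mean of no-drug control wells, as a ratio of optical densities. The ratio is capped at 1. Wells of 384-well plates held 30 µl, or 55 µl for S. pneumoniae, inoculated at OD595 0.01. Readings at OD595 every 30 min for 14 h at 37 °C were corrected against the first reading.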

S. aureus Newman [2] = assay: as above
Outline: as §1

S. pneumoniae D39V [3] = assay: as above
Outline: as §1

B. subtilis 168 = assay: Bliss interaction score (quartile over a dose matrix) (fitness difference); higher = more antagonism (negative = synergy)
Outline: (§2)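 Each OD595 reading at entry into stationary phase was scaled to the robust mean of the untreated wells on its plate, with a ceiling of 1. These ratios define fitness, and single-drug fitness was inferred from combinations. The Bliss score compares observed fitness with the product-based expectation and is reported as quartiles across all replicate types, technical, biological and donor/recipient.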

S. aureus DSM 20231 [4] = assay: as above
Outline: as §2

S. aureus Newman [5] = assay: as above
Outline: as §2

S. pneumoniae D39V [6] = assay: as above
Outline: as §2
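For Bliss interaction score (quartile over a dose matrix) in this document: first quartile when negative (synergy) and third quartile when positive (antagonism).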
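For fitness (endpoint OD595 vs no drug) in this document: OD595 on entry to stationary phase over no-drug wells; at most 1.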

CO/N=C(\C(=O)N[C@@H]1C(=O)N2C(C(=O)[O-])=C(C[N+]3(C)CCCC3)CS[C@H]12)c1csc(N)n1 [Cefepime] + CN[C@H](CC(C)C)C(=O)N[C@H]1C(=O)N[C@@H](CC(N)=O)C(=O)N[C@H]2C(=O)N[C@H]3C(=O)N[C@H](C(=O)N[C@H](C(=O)O)c4cc(O)cc(O)c4-c4cc3ccc4O)[C@H](O)c3ccc(c(Cl)c3)Oc3cc2cc(c3O[C@@H]2O[C@H](CO)[C@@H](O)[C@H](O)[C@H]2O[C@H]2C[C@](C)(N)[C@H](O)[C@H](C)O2)Oc2ccc(cc2Cl)[C@H]1O [Vancomycin]
Settings	fitness
S. aureus DSM 20231 [1], first compound 0.125 µg/mL, partner 0.1875 µg/mL	0.872
S. aureus DSM 20231 [1], first compound 0.125 µg/mL, partner 0.375 µg/mL	0.868
S. aureus DSM 20231 [1], first compound 0.125 µg/mL, partner 0.75 µg/mL	0.936
S. aureus DSM 20231 [1], first compound 0.25 µg/mL, partner 0.1875 µg/mL	0.917
S. aureus DSM 20231 [1], first compound 0.25 µg/mL, partner 0.375 µg/mL	0.902
S. aureus DSM 20231 [1], first compound 0.25 µg/mL, partner 0.75 µg/mL	0.885
S. aureus DSM 20231 [1], first compound 0.5 µg/mL, partner 0.1875 µg/mL	0.883
S. aureus DSM 20231 [1], first compound 0.5 µg/mL, partner 0.375 µg/mL	0.864
S. aureus DSM 20231 [1], first compound 0.5 µg/mL, partner 0.75 µg/mL	0.906
S. aureus Newman [2], first compound 0.125 µg/mL, partner 0.1875 µg/mL	0.945
S. aureus Newman [2], first compound 0.125 µg/mL, partner 0.375 µg/mL	0.946
S. aureus Newman [2], first compound 0.125 µg/mL, partner 0.75 µg/mL	0.922
S. aureus Newman [2], first compound 0.25 µg/mL, partner 0.1875 µg/mL	0.879
S. aureus Newman [2], first compound 0.25 µg/mL, partner 0.375 µg/mL	0.867
S. aureus Newman [2], first compound 0.25 µg/mL, partner 0.75 µg/mL	0.858
S. aureus Newman [2], first compound 0.5 µg/mL, partner 0.1875 µg/mL	0.791
S. aureus Newman [2], first compound 0.5 µg/mL, partner 0.375 µg/mL	0.802
S. aureus Newman [2], first compound 0.5 µg/mL, partner 0.75 µg/mL	0.774
S. pneumoniae D39V [3], first compound 0.007 µg/mL, partner 0.125 µg/mL	0.992
S. pneumoniae D39V [3], first compound 0.007 µg/mL, partner 0.25 µg/mL	0.807
S. pneumoniae D39V [3], first compound 0.007 µg/mL, partner 0.5 µg/mL	0.0222
S. pneumoniae D39V [3], first compound 0.0078 µg/mL, partner 0.03125 µg/mL	0.977
S. pneumoniae D39V [3], first compound 0.0078 µg/mL, partner 0.0625 µg/mL	0.884
S. pneumoniae D39V [3], first compound 0.0078 µg/mL, partner 0.125 µg/mL	0.694
S. pneumoniae D39V [3], first compound 0.014 µg/mL, partner 0.125 µg/mL	0.944
S. pneumoniae D39V [3], first compound 0.014 µg/mL, partner 0.5 µg/mL	0.029
S. pneumoniae D39V [3], first compound 0.0155 µg/mL, partner 0.03125 µg/mL	0.879
S. pneumoniae D39V [3], first compound 0.028 µg/mL, partner 0.125 µg/mL	0.585
S. pneumoniae D39V [3], first compound 0.028 µg/mL, partner 0.5 µg/mL	0.0343
S. pneumoniae D39V [3], first compound 0.031 µg/mL, partner 0.0625 µg/mL	0.308
S. pneumoniae D39V [3], first compound 0.031 µg/mL, partner 0.125 µg/mL	0.269

Settings	Bliss interaction score
B. subtilis 168	-0.154
S. aureus DSM 20231 [4]	0.0422
S. aureus Newman [5]	-0.0634
S. pneumoniae D39V [6]	-0.121

CO/N=C(\C(=O)N[C@@H]1C(=O)N2C(C(=O)[O-])=C(C[N+]3(C)CCCC3)CS[C@H]12)c1csc(N)n1 [Cefepime] + COc1c(N2C[C@@H]3CCCN[C@@H]3C2)c(F)cc2c(=O)c(C(=O)O)cn(C3CC3)c12 [Moxifloxacin]
Settings	fitness
S. aureus DSM 20231 [1], first compound 0.125 µg/mL, partner 0.0075 µg/mL	0.664
S. aureus DSM 20231 [1], first compound 0.125 µg/mL, partner 0.015 µg/mL	0.681
S. aureus DSM 20231 [1], first compound 0.125 µg/mL, partner 0.03 µg/mL	0.616
S. aureus DSM 20231 [1], first compound 0.25 µg/mL, partner 0.0075 µg/mL	0.69
S. aureus DSM 20231 [1], first compound 0.25 µg/mL, partner 0.015 µg/mL	0.682
S. aureus DSM 20231 [1], first compound 0.25 µg/mL, partner 0.03 µg/mL	0.592
S. aureus DSM 20231 [1], first compound 0.5 µg/mL, partner 0.0075 µg/mL	0.766
S. aureus DSM 20231 [1], first compound 0.5 µg/mL, partner 0.015 µg/mL	0.641
S. aureus DSM 20231 [1], first compound 0.5 µg/mL, partner 0.03 µg/mL	0.565
S. aureus Newman [2], first compound 0.125 µg/mL, partner 0.0075 µg/mL	0.748
S. aureus Newman [2], first compound 0.125 µg/mL, partner 0.015 µg/mL	0.616
S. aureus Newman [2], first compound 0.25 µg/mL, partner 0.0075 µg/mL	0.738
S. aureus Newman [2], first compound 0.25 µg/mL, partner 0.015 µg/mL	0.615
S. aureus Newman [2], first compound 0.5 µg/mL, partner 0.0075 µg/mL	0.695
S. pneumoniae D39V [3], first compound 0.007 µg/mL, partner 0.0312 µg/mL	0.146
S. pneumoniae D39V [3], first compound 0.007 µg/mL, partner 0.0625 µg/mL	0.0456
S. pneumoniae D39V [3], first compound 0.007 µg/mL, partner 0.125 µg/mL	0.0274
S. pneumoniae D39V [3], first compound 0.0078 µg/mL, partner 0.005 µg/mL	≥ 1
S. pneumoniae D39V [3], first compound 0.0078 µg/mL, partner 0.01 µg/mL	0.981
S. pneumoniae D39V [3], first compound 0.0078 µg/mL, partner 0.02 µg/mL	≥ 1
S. pneumoniae D39V [3], first compound 0.014 µg/mL, partner 0.0312 µg/mL	0.137
S. pneumoniae D39V [3], first compound 0.014 µg/mL, partner 0.0625 µg/mL	0.0527
S. pneumoniae D39V [3], first compound 0.014 µg/mL, partner 0.125 µg/mL	0.0539
S. pneumoniae D39V [3], first compound 0.0155 µg/mL, partner 0.005 µg/mL	0.987
S. pneumoniae D39V [3], first compound 0.0155 µg/mL, partner 0.01 µg/mL	0.971
S. pneumoniae D39V [3], first compound 0.0155 µg/mL, partner 0.02 µg/mL	≥ 1
S. pneumoniae D39V [3], first compound 0.028 µg/mL, partner 0.0312 µg/mL	0.077
S. pneumoniae D39V [3], first compound 0.028 µg/mL, partner 0.0625 µg/mL	0.0286
S. pneumoniae D39V [3], first compound 0.028 µg/mL, partner 0.125 µg/mL	0.0219
S. pneumoniae D39V [3], first compound 0.031 µg/mL, partner 0.02 µg/mL	0.805

fitness, S. aureus DSM 20231 [1], one replicate
Settings	first compound 0.125 µg/mL	first compound 0.25 µg/mL	first compound 0.5 µg/mL
partner 0.06 µg/mL	0.645	0.622	0.579
partner 0.12 µg/mL	0.469	0.521	0.482

Settings	Bliss interaction score
B. subtilis 168	0.0325
S. aureus DSM 20231 [4]	-0.101
S. aureus Newman [5]	0.0732
S. pneumoniae D39V [6]	-0.0484

CO/N=C(\C(=O)N[C@@H]1C(=O)N2C(C(=O)[O-])=C(C[N+]3(C)CCCC3)CS[C@H]12)c1csc(N)n1 [Cefepime] + COc1ccc(C[C@H](N)C(=O)N[C@H]2[C@@H](O)[C@H](n3cnc4c(N(C)C)ncnc43)O[C@@H]2CO)cc1 [Puromycin]
Settings	fitness
S. aureus DSM 20231 [1], first compound 0.125 µg/mL, partner 0.39 µg/mL	0.867
S. aureus DSM 20231 [1], first compound 0.125 µg/mL, partner 0.78 µg/mL	≥ 1
S. aureus DSM 20231 [1], first compound 0.125 µg/mL, partner 1.56 µg/mL	0.965
S. aureus DSM 20231 [1], first compound 0.25 µg/mL, partner 0.39 µg/mL	0.932
S. aureus DSM 20231 [1], first compound 0.25 µg/mL, partner 0.78 µg/mL	0.951
S. aureus DSM 20231 [1], first compound 0.25 µg/mL, partner 1.56 µg/mL	0.924
S. aureus DSM 20231 [1], first compound 0.5 µg/mL, partner 0.78 µg/mL	0.952
S. aureus DSM 20231 [1], first compound 0.5 µg/mL, partner 1.56 µg/mL	0.907
S. aureus Newman [2], first compound 0.125 µg/mL, partner 0.39 µg/mL	0.898
S. aureus Newman [2], first compound 0.125 µg/mL, partner 0.78 µg/mL	0.94
S. aureus Newman [2], first compound 0.125 µg/mL, partner 1.56 µg/mL	0.9
S. aureus Newman [2], first compound 0.25 µg/mL, partner 0.39 µg/mL	0.831
S. aureus Newman [2], first compound 0.25 µg/mL, partner 0.78 µg/mL	0.865
S. aureus Newman [2], first compound 0.25 µg/mL, partner 1.56 µg/mL	0.865
S. aureus Newman [2], first compound 0.5 µg/mL, partner 0.39 µg/mL	0.728
S. aureus Newman [2], first compound 0.5 µg/mL, partner 0.78 µg/mL	0.764
S. aureus Newman [2], first compound 0.5 µg/mL, partner 1.56 µg/mL	0.775
S. pneumoniae D39V [3], first compound 0.007 µg/mL, partner 1 µg/mL	≥ 1
S. pneumoniae D39V [3], first compound 0.007 µg/mL, partner 2 µg/mL	0.993
S. pneumoniae D39V [3], first compound 0.007 µg/mL, partner 4 µg/mL	0.873
S. pneumoniae D39V [3], first compound 0.014 µg/mL, partner 1 µg/mL	≥ 1
S. pneumoniae D39V [3], first compound 0.014 µg/mL, partner 2 µg/mL	≥ 1
S. pneumoniae D39V [3], first compound 0.014 µg/mL, partner 4 µg/mL	0.876
S. pneumoniae D39V [3], first compound 0.028 µg/mL, partner 1 µg/mL	0.961
S. pneumoniae D39V [3], first compound 0.028 µg/mL, partner 2 µg/mL	0.944
S. pneumoniae D39V [3], first compound 0.028 µg/mL, partner 4 µg/mL	0.771

fitness, one replicate
Settings	first compound 0.0078 µg/mL	first compound 0.0155 µg/mL	first compound 0.031 µg/mL	first compound 0.125 µg/mL	first compound 0.25 µg/mL	first compound 0.5 µg/mL
S. aureus DSM 20231 [1], partner 3.12 µg/mL	–	–	–	0.956	0.911	0.871
S. aureus DSM 20231 [1], partner 6.24 µg/mL	–	–	–	0.781	0.857	0.716
S. pneumoniae D39V [3], partner 1 µg/mL	0.979	0.896	0.42	–	–	–
S. pneumoniae D39V [3], partner 2 µg/mL	0.927	0.881	0.449	–	–	–
S. pneumoniae D39V [3], partner 4 µg/mL	0.868	0.845	0.314	–	–	–

Settings	Bliss interaction score
B. subtilis 168	0.0941
S. aureus DSM 20231 [4]	0.0605
S. aureus Newman [5]	-0.0741
S. pneumoniae D39V [6]	0.132
